Data as given in patent US20240336567A1, “PESTICIDAL AND HERBICIDAL COMPOUNDS AND METHODS OF USE THEREOF” (AG Plenus Ltd, priority 2021, published 2024).

What was measured:
[1] = in vitro thermal shift (binding of compound to the target); details: thermal shift caused by binding of the compound to the (unnamed) target
Arabidopsis thaliana [2] = experiment: HTPS (high throughput on soil) - Dicot - Post-emergence; assay type: in vivo; details: N/A: not active; for Emax: read-out: HTPS - Dicot - Post Max effect; for HTPS - Dicot - Post ED50: from normalized green area
Method: (§1) Arabidopsis thaliana seeds were sown in 96 well plates filled with irrigated Sweet sand (10%>clay) that is washed from salts and minerals using tap water. 5-10 seeds were sown in the center of each well. 7-8 days post sowing, at 2 true leaves stage, thinning out was performed to ensure that compound application is done on a single plant per well. The plates were placed in a controlled greenhouse in a random order inside a bath which allows flooding irrigation with tap water supplemented with a fertilizer. Applied compounds were dissolved into a final solution of 50% acetone, 49.9% DDW, 0.1% tween-20. A 96 well plate was used as a stock plate for preparing application solutions for 8 repeats. Each row contained different concentrations per chemical. Maximal concentration for application was 1.5 Kg/Ha and dilution factor is 2.5. Chemical application was performed one day after thinning out in a chemical hood. 5 μL applied on first two true leaves in each well using 12 channel pipettes. Data collection: RGB (red, green, blue) data for green area per well was documented using camera. Data is collected at a few time points during the experiment: one day after thinning and before chemical application, two-, six- or nine-days post application. During the last two documentations, visual phenotyping was performed. Data analysis: Given RGB results and visual phenotype scores, a student t-test conducted to compare between treatment and control performance for continuous data (RGB) and Fisher exact test to analyze the non-continuous data (phenotypic scores). Dose-Response curves are generated for each treatment to infer ED50 and max. inhibition parameters, using treatment's log concentration range as the […] variable and normalized green area. Plate imaging performed at 11 and 18 DAA. RGB data for green area per well was documented and used to extract % inhibition. Dose-Response curves were built for each treatment to infer ED50, ED75 and ED90 parameters, using treatment's log concentration range as the independent variable and normalized green area as the dependent variable. Treatments were compared to controls performance given RGB results and using student's t-test (p-val≤0.05).

Arabidopsis thaliana [3] = experiment: HTPS - Dicot - Pre-emergence; assay type: in vivo; details: N/A: not active; for Emax: read-out: HTPS - Dicot - Pre Max effect
Method: as §1, with “area. These experiments are conducted similarly except that either Arabidopsis thaliana or Eragrostis teff seeds were sowed (5-10 or 5-7, respectively), plant thinning out was not performed, compound dissolved into a final solution of 50% acetone, 49.9% DDW, compound application was done at 30 μL volume per well directly on sowed soil before plant emergence and data was collected 10 or 7 days after chemical application on dicot or monocot plants, respectively.” for “area.”

Eragrostis teff = experiment: HTPS - Monocot - Pre-emergence; assay type: in vivo; details: N/A: not active; for Emax: read-out: HTPS - Monocot - Pre Max effect
Method: as §1, with “area. These experiments are conducted similarly except that either Arabidopsis thaliana or Eragrostis teff seeds were sowed (5-10 or 5-7, respectively), plant thinning out was not performed, compound dissolved into a final solution of 50% acetone, 49.9% DDW, compound application was done at 30 μL volume per well directly on sowed soil before plant emergence and data was collected 10 or 7 days after chemical application on dicot or monocot plants, respectively.” for “area.”

SETVI = experiment: In-planta LTP pre-emergence, visual phenotype; assay type: in vivo, Setaria viridis; details: Setaria viridis, 432 h, monocot, read-out: IG Inhibited growth (% effect)
Method: A basic panel of 8 weed species (Table 3) were sowed in 4×4×7 cm plastic pots containing inert sand (Sweet sand), intensively washed using osmosis water. Each specie was sowed in a separate pot. In each pot 10-15 seeds were sowed according to the specie viability. Sowing was performed one day before application. The plants were grown for 21 days in a controlled greenhouse (26±2° C. day 20±2° C. night). Hood irrigation (tap water+Shefer 5:3:8 8 mM) was given at a 50% water content by weight. Compounds were soluble in water (DDW), and commercial herbicide control was soluble in formulation B (Table 4). Application was conducted with an industrial sprayer (TeeJet 6502E nozzle) at a rate of 2 kg/ha and spray volume of […]. Pre-emergence advanced dose response experiment application was conducted at six rates between 1-0.0312 kg/ha and spray volume of […]. Percentage of emergence was evaluated at 15 DAA. Visual phenotyping was recorded using a scale of 0-6 (0: no visible effect, 6: maximum effect) at 18 DAA. All experiments included an untreated control, a solvent control and a positive control (commercial herbicide A.I.). Statistical analysis for visual phenotyping determined by a median value of ≥3.5 and Fisher test (pval≤0.05). Statistical analysis for plant emergence determined by % emergence ≥50 and T test (pval≤0.05), as well as Wilcox test (pval≤0.05).

| SMILES | in vitro Thermal Shift [1] | Emax (Arabidopsis thaliana [2]) | Emax (Arabidopsis thaliana [3]) | Emax (Eragrostis teff) | HTPS - Dicot - Post ED50 (Arabidopsis thaliana [2]) | HTPS - Dicot - Pre ED50 (Arabidopsis thaliana [3]) | HTPS - Monocot - Pre ED50 (Eragrostis teff) | pest or weed control at 2000 g/ha (SETVI) |
| --- | --- | --- | --- | --- | --- | --- | --- | --- |
| CC(CN)Oc1ccc(F)c(C(=O)O)c1 (stereo not shown) [Compound 101] | 13 °C | 24% | 20% | 12% | – | – | – | – |
| CC(C)(N)COc1cccc(C(=O)O)c1 [Compound 103] | 8 °C | 100% | – | – | 157 g/ha | – | – | – |
| CC(N)COc1ccc(Cl)c(C(=O)O)c1 (stereo not shown) [Compound 107] | 14 °C | 100% | 100% | 45% | 400 g/ha | 127 g/ha | 660 g/ha | – |
| COC(=O)c1cccc(OCC(C)N)c1 (stereo not shown) [Compound 110] | 4 °C | 100% | 100% | – | 38 g/ha | 80 g/ha | – | 80% |
| CC(CN)Nc1cccc(C(=O)O)c1 (stereo not shown) [Compound 119] | 7 °C | 33% | 22% | 3% | – | – | – | – |
| NC1(COc2cccc(C(=O)O)c2)CC1 [Compound 121] | 11 °C | 99% | – | – | 256 g/ha | – | – | – |
| NC1CCCC1Oc1cccc(C(=O)O)c1 (stereo not shown) [Compound 122] | 16 °C | 100% | – | 89% | 19 g/ha | – | – | – |
| NCCOc1cccc(C(=O)O)c1 [Compound 127] | 9 °C | 100% | 100% | 94% | 134 g/ha | 180 g/ha | – | – |
| NCCNc1ccc(Cl)c(C(=O)O)c1 [Compound 133] | 6 °C | 40% | 5% | 0% | – | – | – | – |
| CC(N)CNc1ccc(Cl)c(C(=O)O)c1 (stereo not shown) [Compound 139] | 9 °C | – | 100% | – | – | 256 g/ha | – | – |
| CC(N)CSc1cccc(C(=O)O)c1 (stereo not shown) [Compound 140] | 5 °C | 15% | 0% | 33% | – | – | – | – |
| CCOC(=O)c1cccc(OCC(C)N)c1 (stereo not shown) [Compound 150] | 6 °C | – | 100% | – | – | 150 g/ha | – | – |
| NCCSc1cccc(C(=O)O)c1 [Compound 151] | 5 °C | – | – | – | – | – | – | – |
| Cc1ccc(OCCN)cc1C(=O)O [Compound 152] | 4 °C | – | – | – | – | – | – | – |
| C[C@H](N)COc1cccc(C(=O)O)c1 [Compound 155] | 13 °C | 100% | 100% | 100% | 56 g/ha | 60 g/ha | 170 g/ha | – |
| CCC(N)COc1cccc(C(=O)O)n1 (stereo not shown) [Compound 168] | 15 °C | 100% | – | – | 22 g/ha | – | – | – |

| SMILES | in vitro Thermal Shift [1] | Emax (Arabidopsis thaliana [2]) | Emax (Arabidopsis thaliana [3]) | Emax (Eragrostis teff) | HTPS - Dicot - Post ED50 (Arabidopsis thaliana [2]) | HTPS - Dicot - Pre ED50 (Arabidopsis thaliana [3]) | HTPS - Monocot - Pre ED50 (Eragrostis teff) | pest or weed control at 2000 g/ha (SETVI) |
| --- | --- | --- | --- | --- | --- | --- | --- | --- |
| NC1CCCC1Oc1cccc(C(=O)O)n1 (stereo not shown) [Compound 173] | – | 100% | – | – | 463 g/ha | – | – | – |
| C[C@@H](N)COc1cccc(C(=O)O)n1 [Compound 174] | 15 °C | 100% | 100% | – | 44 g/ha | 3.8 g/ha | – | – |
| C[C@H](N)COc1cccc(C(=O)O)n1 [Compound 175] | 15 °C | 100% | 100% | – | 7 g/ha | 3.8 g/ha | – | – |
| CCOC(=O)CNC(=O)c1cccc(OCC(C)N)n1 (stereo not shown) [Compound 176] | 2 °C | 100% | – | – | 85 g/ha | – | – | – |
| CCOC(=O)CCOC(=O)c1cccc(OCC(C)N)n1 (stereo not shown) [Compound 177] | 6 °C | 100% | – | – | 27 g/ha | – | – | – |
| CCOC(=O)CNC(=O)c1cccc(OCC(C)N)c1 (stereo not shown) [Compound 178] | 1 °C | 100% | – | – | 39 g/ha | – | – | – |
| CCOC(=O)COC(=O)c1cccc(OCC(C)N)n1 (stereo not shown) [Compound 179] | 9 °C | 100% | – | – | 22 g/ha | – | – | – |
| COC(=O)COC(=O)c1cccc(OCC(C)N)n1 (stereo not shown) [Compound 180] | 12 °C | 100% | – | – | 13 g/ha | – | – | – |
| CC(N)COc1cccc(C(=O)OCC(=O)O)n1 (stereo not shown) [Compound 181] | 14 °C | 100% | – | – | 23 g/ha | – | – | – |
| COC(=O)CCOC(=O)c1cccc(OCC(C)N)n1 (stereo not shown) [Compound 182] | – | 100% | – | – | 72 g/ha | – | – | – |
| CC(N)COc1cccc(C(=O)OCCC(=O)O)n1 (stereo not shown) [Compound 183] | – | 100% | – | – | 17 g/ha | – | – | – |
| CCCCOC(=O)c1cccc(OCC(C)N)n1 (stereo not shown) [Compound 184] | 5 °C | 100% | – | – | 36 g/ha | – | – | – |
| C#CCOC(=O)c1cccc(OCC(C)N)n1 (stereo not shown) [Compound 185] | 10 °C | 100% | – | – | 30 g/ha | – | – | – |
| CC(N)COc1cc(Cl)c(F)c(C(=O)O)c1 (stereo not shown) [Compound 186] | 16 °C | 100% | – | – | 200 g/ha | – | – | – |
| COC(=O)c1cccc(OCC(C)N)n1 (stereo not shown) [Compound 218] | 8 °C | 100% | – | – | 14 g/ha | – | – | – |
| CCOC(=O)c1cccc(OCC(C)N)n1 (stereo not shown) [Compound 219] | 3 °C | 100% | – | – | 48 g/ha | – | – | – |
